Reference: US9586958B2, “Prodrug derivatives of substituted triazolopyridines” (BAYER PHARMA AKTIENGESELLSCHAFT, priority 2013, dated 2017)

Assay: In vitro stability in rat plasma (HPLC detection)
Type: in vitro ADME
Conditions: 37° C.
Protocol: 1 mg of test compound is dissolved in 1.25 ml dimethylsulfoxide. Then 1.25 ml water are added. 0.5 ml of this sample solution are mixed with 0.5 ml heparinized and 37° C. warm plasma (wistar rat plasma or human plasma). A first sample (10 μl) is immediately taken for HPLC analysis. In the period up to 4 h after the start of incubation further 10 μl aliquots are taken after 30, 60, 90, 120 and 240 minutes and the amount of the test compound is determined.
Agilent 1100 with DAD (G1315A), binary pump (G1312A), autosampler (G1329A), column oven (G1316A), thermostat (G1330B); column: Kromasil 100 C18, 250 mm×4 mm, 5 μm; column temperature: 45° C.; eluent A: water+5 ml of perchloric acid/liter, eluent B: acetonitrile.

Row | % Test Compound after 4 h [F(t = 24 h) × 100/F(t = 0 h)] [%] | SMILES
1 | 6 | CC(C)[C@H](N)C(=O)OCOC(=O)N(c1nc2ccc(-c3ccc(NC(=O)[C@H](C)c4ccc(F)cc4)cc3)cn2n1)c1ccc(S(C)(=O)=O)cc1OCC(F)(F)F.Cl [Example 6.2, ({[6-(4-{[(2R)-2-(4-fluorophenyl)propanoyl]amino}phenyl)[1,2,4]triazolo[1,5-α]pyridin-2-yl][4-(methylsulfonyl)-2-(2,2,2-trifluoroethoxy)phenyl]carbamoyl}oxy)methyl L-valinate hydrochloride]
2 | 57 | CNCC(=O)N(c1nc2ccc(-c3ccc(NC(=O)[C@H](C)c4ccc(F)cc4)cc3)cn2n1)c1ccc(S(C)(=O)=O)cc1OC.O=C(O)C(F)(F)F [Example 8.1, (2R)-2-(4-fluorophenyl)-N-[4-(2-{[2-methoxy-4-(methylsulfonyl)phenyl](N-methylglycyl)amino}[1,2,4]triazolo[1,5-α]pyridin-6-yl)phenyl]propanamide trifluoroacetate]

Second part, the compound before the results:

Row | SMILES | % Test Compound after 4 h [F(t = 24 h) × 100/F(t = 0 h)] [%]
3 | CC[C@H](C)[C@H](N)C(=O)OC(C)OC(=O)N(c1nc2ccc(-c3ccc(NC(=O)[C@H](C)c4ccc(F)cc4)cc3)cn2n1)c1ccc(S(C)(=O)=O)cc1OC.Cl (mixture of isomers) [Example 3.5, (1RS)-1-({[6-(4-{[(2R)-2-(4-fluorophenyl)propanoyl]amino}phenyl)[1,2,4]triazolo[1,5-α]pyridin-2-yl][2-methoxy-4-(methylsulfonyl)phenyl]carbamoyl}oxy)ethyl-L-isoleucinate hydrochloride] | 19
4 | COc1cc(S(C)(=O)=O)ccc1N(C(=O)OC(OC(=O)C(C)(C)N)C(C)C)c1nc2ccc(-c3ccc(NC(=O)[C@H](C)c4ccc(F)cc4)cc3)cn2n1.Cl (mixture of isomers) [Example 5.5, (1RS)-1-({[6-(4-{[(2R)-2-(4-fluorophenyl)propanoyl]amino}phenyl)[1,2,4]triazolo[1,5-α]pyridin-2-yl][2-methoxy-4-(methylsulfonyl)phenyl]carbamoyl}oxy)-2-methylpropyl-2-methylalaninate hydrochloride] | 33
5 | COc1cc(S(C)(=O)=O)ccc1N(C(=O)OCOC(=O)[C@@H](N)CC(C)C)c1nc2ccc(-c3ccc(NC(=O)[C@H](C)c4ccc(F)cc4)cc3)cn2n1.Cl [Example 1.3, ({[6-(4-{[(2R)-2-(4-fluorophenyl)propanoyl]amino}phenyl)[1,2,4]triazolo[1,5-α]pyridin-2-yl][2-methoxy-4-(methylsulfonyl)phenyl]carbamoyl}oxy)methyl L-leucinate hydrochloride] | 0.0
6 | COc1cc(S(C)(=O)=O)ccc1N(C(=O)OCOP(=O)(O)O)c1nc2ccc(-c3ccc(NC(=O)[C@H](C)c4ccc(F)cc4)cc3)cn2n1 [Example 1.6, (phosphonooxy)methyl [6-(4-{[(2R)-2-(4-fluorophenyl)propanoyl]amino}phenyl)[1,2,4]triazolo[1,5-α]pyridin-2-yl][2-methoxy-4-(methylsulfonyl)phenyl]carbamate] | 0.0
